Assay results: patent US6926905B2, “Liposomak compositions and methods of preparation” (Yissum Research Development Company of the Hebrew …, priority 1998, dated 2005)
Counter-ions that a name gives are not always drawn.

What was measured:
Male Swiss-Webster mice [1] = details: mouse, in vivo
Male Swiss-Webster mice [2] = experiment: Analgesic efficacy: sensory block, vocalization response to cutaneous electrical stimulation after subcutaneous injection; type: in vivo; details: 8 mice
Protocol: All experiments were approved by the Institutional Animal Care and Use Committee. Male Swiss-Webster mice weighing 26+3 g (mean+SD) were used. Animals had free access to food and water, and were maintained on 12-hour dark-light cycle. Prior to testing, the hair overlying the abdomen was shaved. Analgesia was assessed using response to cutaneous electrical stimulation. A current generator (model S48, Grass Instruments, Quincy, Mass.) coupled to a constant current unit (model PSIU6F, Grass Instruments, Quincy, Mass.) was used. The current was delivered to the skin surface by touching it gently with two electrodes fashioned from #25 g needles. The vocalization threshold (the current required to produce a vocalization response) was assessed prior to injection of study solutions. […] To determine analgesic duration, mice were injected with liposomal BUP compositions having 0.5 wt % and 3.5 wt % bupivacaine, respectively, formed by dilution (as necessary of formulation 3, above. Free BUP (0.5%), hyperosmotic saline (580 mM), or drug-free liposomes were used as controls. For all groups, […] of test solution was injected subcutaneously using a #25 g needle in 8 mice. After injection, sensory block was assessed at 5, 15, 30 minutes and then at 1, 1.5, 2, 3, 4.5, 6, 9, 12, 14, 16, 17, and 19 hours. Failure to vocalize in response to stimulation with threshold current was taken as analgesia. […]

[3] = Tissue BUP post-administration: drug remaining at the site of injection (HPLC of excised tissue); type: in vivo; details: four hours after injection, mice, subcutaneous
Protocol: In a separate group of mice, the amount of drug remaining at the site of injection after administration of 0.5% and 3.5% liposomal BUP (formulation 3) or 0.5% free BUP was determined. Three animals were sacrificed at 0, 0.25, 0.5, 1, 2, 4, and 8 hours after injections of all drug formulations and also at 16, 24, 48 and 96 hours after injection of the liposomal formulations. After sacrifice, a 1-cm2 circular tissue section including the entire area of injection, and extending to the peritoneum, was excised. The tissue was homogenized in 1 ml of isopropanol for 1 min, and then centrifuged at 16,000×G (Eppendorf Centrifuge 5417C, Engelsdorf, Germany). The supernatant was diluted 1:100 in isopropanol, and BUP concentration was determined using HPLC. In vivo release kinetics were done in triplicate. Results are presented in FIG. 2, where the absolute amounts remaining are expressed as mean±SD.

CCCCN1CCCCC1C(=O)Nc1c(C)cccc1C (centres unmarked) [0.5% free BUP, Bupivacaine hydrochloride]
systemic toxic effects (Male Swiss-Webster mice [1]): produced toxicity
time at which analgesia was exhibited (Male Swiss-Webster mice [2]): 30 min
time at which analgesia was not detected (regressed in all animals) (Male Swiss-Webster mice [2]): 2 h
amount remaining at the site [3]: 8 mg
injected dose remaining at the site [3]: 1%
